Assay results published in ChEMBL document CHEMBL1142691, “Solid-phase total synthesis of kahalalide A and related analogues” (2005).
In brackets after ≈: the same amount, converted by molar mass.

What was measured:
[1] = system: Mycobacterium tuberculosis; assay: Concentration to inhibit of the growth of Mycobacterium tuberculosis at 12.5 ug/ml; assay type: functional
[2] = system: Mycobacterium tuberculosis; assay: Minimum inhibitory concentration against Mycobacterium tuberculosis; assay type: functional

SMILES | inhibition at 12.5 µg/mL [1] | MIC [2]
CCC(C)C(=O)N[C@H](Cc1ccccc1)C(=O)N[C@@H]1C(=O)N[C@H](CC(C)C)C(=O)N[C@H](Cc2ccccc2)C(=O)N[C@H](CC(C)C)C(=O)N[C@@H]([C@@H](C)O)C(=O)N[C@@H](CO)C(=O)O[C@@H]1C (some centres undefined) | 83% | 64 µg/mL (≈ 71.6 µM)
CCCCCC(=O)N[C@H](Cc1ccccc1)C(=O)N[C@@H]1C(=O)N[C@H](CC(C)C)C(=O)N[C@H](Cc2ccccc2)C(=O)N[C@H](CC(C)C)C(=O)N[C@@H]([C@@H](C)O)C(=O)N[C@@H](CO)C(=O)O[C@@H]1C | – | 32 µg/mL (≈ 35.2 µM)
CC[C@H](C)C(=O)N[C@H](Cc1ccccc1)C(=O)N[C@@H]1C(=O)N[C@H](CC(C)C)C(=O)N[C@H](Cc2ccccc2)C(=O)N[C@H](CC(C)C)C(=O)N[C@@H]([C@@H](C)O)C(=O)N[C@@H](CO)C(=O)O[C@@H]1C | – | 64 µg/mL (≈ 71.6 µM)
